This is an account of results in patent US20080119462A1, “METHOD FOR TREATING VASCULAR HYPERPERMEABLE DISEASE” (Sucampo AG, priority 2003, published 2008).

A word on the melting point: it is the temperature of the solid-liquid transition.

One series concerns diabetic rats. The series is described as follows: Ocular permeability in STZ diabetic rats (leakage of fluorescein into the vitreous). The class given is in vivo, rat. The note with it: daily from 2 weeks after STZ, mean ± S.E.M., 10 rats. Here is the method: Diabetes in rats was induced with an intraperitoneal (i.p.) injection of 65 mg/ml/kg of streptozotocin (STZ) in 2 mmol/l citrate buffer (pH 4.5) after a 20-h fast. At the same time control rats were injected with an equal volume of 2 mmol/l citrate buffer. Plasma glucose level was checked by a calorimetric method. At day 3 of STZ treatment, the rats were diagnosed with diabetes showing a plasma glucose level of 350 mg/dl.
The treatment of Compound A was given daily from 2 weeks after STZ treatment for 2 weeks. At 24 hrs after final treatment of Compound A, the vascular permeability in oculus was investigated based on the leakage of dye into the vitreous 30 min after intravenous injection of fluorescein solution (40 mg/ml/kg). Permeability was expressed as vitreous/plasma ratio of fluorescein concentration measured by a fluorophotometer. At the same time, the plasma SSAO activity was checked by the radiochemical-enzyme assay using ^14C-benzylamine (2×10^−5 mol/l final concentration) as substrate.
In the same manner as in Example 2, the effect of various VAP-1 inhibitors on ocular permeability was determined in diabetic rats.

Where a name gives a salt, the structure may show the parent alone.

On to `CC(=O)Nc1nc(CCc2ccc(C(=N)N)cc2)cs1.Cl`, for which the melting point is 229.5 to 231 °C.

Molecule `CC(=O)Nc1nc(CCc2ccc(CC(=N)N)cc2)cs1` (as salt: hydrochloride) [Production Example 59, N-(4-{2-[4-(2-amino-2-iminoethyl)phenyl]ethyl}-1,3-thiazol-2-yl)acetamide] registered a melting point of 190.5 to 192 °C.

`CC(=O)Nc1nc(CCc2ccc(CON)cc2)cs1` [Compound B, N-[4-(2-{4-[(aminooxy)methyl]phenyl}ethyl)-1,3-thiazol-2-yl]acetamide] showed a melting point of 130 to 130.5 °C. Also, in the series with diabetic rats (0.1 mg/kg, s.c.), the “Vitreous/Plasma Ratio of Fluorescein Concentration” value is 7.54 ± 0.80 ×10^−3. In the series on diabetic rats (0.003%, ocular instillation, u.i.d.), the “Vitreous/Plasma Ratio of Fluorescein Concentration” value was 9.86 ± 1.65 ×10^−3.

For the molecule `CC(=O)Nc1nc(CCc2ccc(NC3=NCCS3)cc2)cs1` [Production Example 2, N-(4-(2-(4-(4,5-dihydro-1,3-thiazol-2-ylamino)phenyl)ethyl)-1,3-thiazol-2-yl)acetamide], the melting point was 218 to 219.5 °C.

As for `C=NOCc1ccc(CCc2csc(NC(C)=O)n2)cc1` [Production Example 17, N-{4-[2-(4-{[(methyleneamino)oxy]methyl}phenyl)ethyl]-1,3-thiazol-2-yl}acetamide], the melting point fell in the range of 136.5 to 137 °C.

`CC(=O)Nc1nc(CCc2ccc(NC(=N)N)cc2)c(Cc2ccc(S(C)(=O)=O)cc2)s1` [Production Example 48, N-{4-[2-(4-{[amino(imino)methyl]amino}phenyl)ethyl]-5-[4-(methylsulfonyl)benzyl]-1,3-thiazol-2-yl}acetamide] displayed a melting point of 228 to 229.5 °C.

Take `CC(=O)Nc1nc(CCc2ccc(NC3=NCCN3)cc2)c(Cc2ccc(S(C)(=O)=O)cc2)s1` [Production Example 55, N-{4-{2-[4-(4,5-dihydro-1H-imidazol-2-ylamino)phenyl]ethyl}-5-[4-(methylsulfonyl)benzyl]-1,3-thiazol-2-yl}acetamide]: the melting point fell in the range of 139 to 140 °C.

In turn, `CC(=N)Nc1ccc(CCc2nc(NC(C)=O)sc2Cc2ccc(S(C)(=O)=O)cc2)cc1` [Production Example 56, N-{4-{2-[4-(ethanimidoylamino)phenyl]ethyl}-5-[4-(methylsulfonyl)benzyl]-1,3-thiazol-2-yl}acetamide] displayed a melting point of 81.5 to 83 °C.

The molecule `CC(=O)Nc1nc(CCc2ccc(C(=O)NC(=N)N)cc2)c(Cc2ccc(S(C)(=O)=O)cc2)s1` [Production Example 106, 4-(2-{2-(acetylamino)-5-[4-(methylsulfonyl)benzyl]-1,3-thiazol-4-yl}ethyl)-N-[amino(imino)methyl]benzamide] had a melting point of 108 to 109.5 °C.
